Test results from PMC5613698 (Biochemistry and Biophysics Reports, 2016).
Where a name gives a salt, the structure may show the parent alone.

System: trypsin from L. alexandri pyloric cecum (Pacamã trypsin)
Experiment: p-nitroaniline release at […] nm, Lineweaver-Burk
Assay type: biochemical, Lophiosilurus alexandri
Conditions: optimum pH (9.0) and temperature (50 °C), 90 min, BAPNA 0-6.0 mM

## N=C(N)NCCCC(NC(=O)c1ccccc1)C(=O)Nc1ccc([N+](=O)[O-])cc1 (racemic) [BAPNA, Nα-Benzoyl-D,L-arginine 4-nitroanilide hydrochloride]
  Km: 517 µM
